US9499550B2 (BRISTOL-MYERS SQUIBB COMPANY, priority 2012, dated 2016)

Tests used:
[1] = test system: HCV genotype 1a (H77 strain) replicon in HUH-7 cells; assay: HCV replicon luciferase reporter assay, genotype 1a; type: cell-based; conditions: Hepatitis C virus, Huh-7, 72 h, HCV genotype 1a replicon luciferase, 3 days incubation, read-out: LE_1a (EC50, range)
Method in brief: (§1)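 Replicon inhibition for both genotypes was measured as Renilla luciferase signal (EnduRen, 7.5 μM final, 2 h) after 3-day, 37° C exposure of replicon-bearing HUH-7 cells in 4% FCS DMEM, 0.5% DMSO. The 1b construct carries S1179I; the 1a H77 construct carries P1496L and S2204I. Twenty-point, 3-fold dilutions were fitted four-parametrically for EC50, and CC50 was taken from multiplexed Cell Titer-Blue.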

[2] = test system: HCV genotype 1b (Con1) replicon in HUH-7 cells; assay: HCV replicon luciferase reporter assay, genotype 1b; type: cell-based; conditions: Hepatitis C virus, Huh-7, 72 h, HCV genotype 1b replicon luciferase, 3 days incubation, read-out: LE_1b (EC50, range)
Method in brief: as §1

Row | SMILES | EC50 [1] | EC50 [2]
1 | COc1ccc2c(O[C@@H]3C[C@H]4C(=O)N[C@]5(C(=O)NS(=O)(=O)C6CC6)C[C@H]5/C=C\CC[C@@H](C)C[C@@H](C)[C@H](NC(=O)NC(C)(C)C)C(=O)N4C3)nc(-c3ccc(OC(C)C)cn3)cc2c1 [Compound 5211, (2R,6S,7R,9R,13aS,14aR,16aS,Z)-6-(3-(tert-butyl)ureido)-N-(cyclopropylsulfonyl)-2-((3-(5-isopropoxypyridin-2-yl)-6-methoxyisoquinolin-1-yl)oxy)-7,9-dimethyl-5,16-dioxo-1,2,3,5,6,7,8,9,10,11,13a,14,14a,15,16,16a-hexadecahydrocyclopropa[e]pyrrolo[1,2-a][1,4]diazacyclopentadecine-14a-carboxamide] | < 5.46 nM | < 5.46 nM
2 | COc1ccc2c(O[C@@H]3C[C@H]4C(=O)N[C@]5(C(=O)NS(=O)(=O)C6CC6)C[C@H]5/C=C\CC[C@H](C)C[C@@H](C)[C@H](NC(=O)OC(C)(C)C)C(=O)N4C3)nc(-c3ccc(OC(C)C)nc3)cc2c1 [Compound 5212, tert-butyl ((2R,6S,7R,9S,13aS,14aR,16aS,Z)-14a-((cyclopropylsulfonyl)carbamoyl)-2-((3-(6-isopropoxypyridin-3-yl)-6-methoxyisoquinolin-1-yl)oxy)-7,9-dimethyl-5,16-dioxo-1,2,3,5,6,7,8,9,10,11,13a,14,14a,15,16,16a-hexadecahydrocyclopropa[e]pyrrolo[1,2-a][1,4]diazacyclopentadecin-6-yl)carbamate] | < 5.46 nM | < 5.46 nM
3 | COc1ccc2c(O[C@@H]3C[C@H]4C(=O)N[C@]5(C(=O)NS(=O)(=O)C6CC6)C[C@H]5/C=C\CC[C@@H](C)C[C@@H](C)[C@H](NC(=O)OC(C)(C)C)C(=O)N4C3)nc(-c3ccc(OC(C)C)nc3)cc2c1 [Compound 5213, tert-butyl ((2R,6S,7R,9R,13aS,14aR,16aS,Z)-14a-((cyclopropylsulfonyl)carbamoyl)-2-((3-(6-isopropoxypyridin-3-yl)-6-methoxyisoquinolin-1-yl)oxy)-7,9-dimethyl-5,16-dioxo-1,2,3,5,6,7,8,9,10,11,13a,14,14a,15,16,16a-hexadecahydrocyclopropa[e]pyrrolo[1,2-a][1,4]diazacyclopentadecin-6-yl)carbamate] | < 5.46 nM | < 5.46 nM
4 | COc1ccc2c(O[C@@H]3C[C@H]4C(=O)N[C@]5(C(=O)NS(=O)(=O)C6CC6)C[C@H]5/C=C\CC[C@H](C)C[C@@H](C)[C@H](NC(=O)OC(C)(C)C(F)(F)F)C(=O)N4C3)nc(-c3ccc(OC(C)C)nc3)cc2c1 [Compound 5214, 1,1,1-trifluoro-2-methylpropan-2-yl((2R,6S,7R,9S,13aS,14aR,16aS,Z)-14a-((cyclopropylsulfonyl)carbamoyl)-2-((3-(6-isopropoxypyridin-3-yl)-6-methoxyisoquinolin-1-yl)oxy)-7,9-dimethyl-5,16-dioxo-1,2,3,5,6,7,8,9,10,11,13a,14,14a,15,16,16a-hexadecahydrocyclopropa[e]pyrrolo[1,2-a][1,4]diazacyclopentadecin-6-yl)carbamate] | 4.82 to 103 nM | < 5.46 nM
5 | COc1ccc2c(O[C@@H]3C[C@H]4C(=O)N[C@]5(C(=O)NS(=O)(=O)C6CC6)C[C@H]5/C=C\CC[C@@H](C)C[C@@H](C)[C@H](NC(=O)OC(C)(C)C(F)(F)F)C(=O)N4C3)nc(-c3ccc(OC(C)C)nc3)cc2c1 [Compound 5215, 1,1,1-trifluoro-2-methylpropan-2-yl((2R,6S,7R,9R,13aS,14aR,16aS,Z)-14a-((cyclopropylsulfonyl)carbamoyl)-2-((3-(6-isopropoxypyridin-3-yl)-6-methoxyisoquinolin-1-yl)oxy)-7,9-dimethyl-5,16-dioxo-1,2,3,5,6,7,8,9,10,11,13a,14,14a,15,16,16a-hexadecahydrocyclopropa[e]pyrrolo[1,2-a][1,4]diazacyclopentadecin-6-yl)carbamate] | < 5.46 nM | < 5.46 nM
6 | [2H]C([2H])([2H])C(OC(=O)N[C@@H]1C(=O)N2C[C@H](Oc3nc(-c4ccc(OC(C)C)nc4)cc4cc(OC)ccc34)C[C@H]2C(=O)N[C@]2(C(=O)NS(=O)(=O)C3CC3)C[C@H]2/C=C\CC[C@H](C)C[C@H]1C)(C([2H])([2H])[2H])C(F)(F)F [Compound 5216, 1,1,1,3,3,3-hexadeutero-2-(trifluoromethyl)propan-2-yl((2R,6S,7R,9S,13aS,14aR,16aS,Z)-14a-((cyclopropylsulfonyl)carbamoyl)-2-((3-(6-isopropoxypyridin-3-yl)-6-methoxyisoquinolin-1-yl)oxy)-7,9-dimethyl-5,16-dioxo-1,2,3,5,6,7,8,9,10,11,13a,14,14a,15,16,16a-hexadecahydrocyclopropa[e]pyrrolo[1,2-a][1,4]diazacyclopentadecin-6-yl)carbamate] | 4.82 to 103 nM | < 5.46 nM
7 | [2H]C([2H])([2H])C(OC(=O)N[C@@H]1C(=O)N2C[C@H](Oc3nc(-c4ccc(OC(C)C)nc4)cc4cc(OC)ccc34)C[C@H]2C(=O)N[C@]2(C(=O)NS(=O)(=O)C3CC3)C[C@H]2/C=C\CC[C@@H](C)C[C@H]1C)(C([2H])([2H])[2H])C(F)(F)F [Compound 5217, 1,1,1,3,3,3-hexadeutero-2-(trifluoromethyl)propan-2-yl((2R,6S,7R,9R,13aS,14aR,16aS,Z)-14a-((cyclopropylsulfonyl)carbamoyl)-2-((3-(6-isopropoxypyridin-3-yl)-6-methoxyisoquinolin-1-yl)oxy)-7,9-dimethyl-5,16-dioxo-1,2,3,5,6,7,8,9,10,11,13a,14,14a,15,16,16a-hexadecahydrocyclopropa[e]pyrrolo[1,2-a][1,4]diazacyclopentadecin-6-yl)carbamate] | < 5.46 nM | < 5.46 nM
8 | COc1ccc2c(O[C@@H]3C[C@H]4C(=O)N[C@]5(C(=O)NS(=O)(=O)C6CC6)C[C@H]5/C=C\CC[C@H](C)C[C@@H](C)[C@H](NC(=O)OC5C[C@@H]6C[C@@H]6C5)C(=O)N4C3)nc(-c3ccc(OC(C)C)nc3)cc2c1 (stereo partly drawn) [Compound 5218, (1R,3r,5S)-bicyclo[3.1.0]hexan-3-yl((2R,6S,7R,9S,13aS,14aR,16aS,Z)-14a-((cyclopropylsulfonyl)carbamoyl)-2-((3-(6-isopropoxypyridin-3-yl)-6-methoxyisoquinolin-1-yl)oxy)-7,9-dimethyl-5,16-dioxo-1,2,3,5,6,7,8,9,10,11,13a,14,14a,15,16,16a-hexadecahydrocyclopropa[e]pyrrolo[1,2-a][1,4]diazacyclopentadecin-6-yl)carbamate] | < 5.46 nM | < 5.46 nM
9 | COc1ccc2c(O[C@@H]3C[C@H]4C(=O)N[C@]5(C(=O)NS(=O)(=O)C6CC6)C[C@H]5/C=C\CC[C@@H](C)C[C@@H](C)[C@H](NC(=O)OC5C[C@@H]6C[C@@H]6C5)C(=O)N4C3)nc(-c3ccc(OC(C)C)nc3)cc2c1 (stereo partly drawn) [Compound 5219, (1R,3r,5S)-bicyclo[3.1.0]hexan-3-yl((2R,6S,7R,9R,13aS,14aR,16aS,Z)-14a-((cyclopropylsulfonyl)carbamoyl)-2-((3-(6-isopropoxypyridin-3-yl)-6-methoxyisoquinolin-1-yl)oxy)-7,9-dimethyl-5,16-dioxo-1,2,3,5,6,7,8,9,10,11,13a,14,14a,15,16,16a-hexadecahydrocyclopropa[e]pyrrolo[1,2-a][1,4]diazacyclopentadecin-6-yl)carbamate] | < 5.46 nM | < 5.46 nM
10 | COc1ccc2c(O[C@@H]3C[C@H]4C(=O)N[C@]5(C(=O)NS(=O)(=O)C6CC6)C[C@H]5/C=C\CC[C@H](C)C[C@@H](C)[C@H](NC(=O)NC(C)(C)C)C(=O)N4C3)nc(-c3ccc(OC(C)C)nc3)cc2c1 [Compound 5220, (2R,6S,7R,9S,13aS,14aR,16aS,Z)-6-(3-(tert-butyl)ureido)-N-(cyclopropylsulfonyl)-2-((3-(6-isopropoxypyridin-3-yl)-6-methoxyisoquinolin-1-yl)oxy)-7,9-dimethyl-5,16-dioxo-1,2,3,5,6,7,8,9,10,11,13a,14,14a,15,16,16a-hexadecahydrocyclopropa[e]pyrrolo[1,2-a][1,4]diazacyclopentadecine-14a-carboxamide] | < 5.46 nM | < 5.46 nM
11 | COc1ccc2c(O[C@@H]3C[C@H]4C(=O)N[C@]5(C(=O)NS(=O)(=O)C6CC6)C[C@H]5/C=C\CC[C@@H](C)C[C@@H](C)[C@H](NC(=O)NC(C)(C)C)C(=O)N4C3)nc(-c3ccc(OC(C)C)nc3)cc2c1 [Compound 5221, (2R,6S,7R,9R,13aS,14aR,16aS,Z)-6-(3-(tert-butyl)ureido)-N-(cyclopropylsulfonyl)-2-((3-(6-isopropoxypyridin-3-yl)-6-methoxyisoquinolin-1-yl)oxy)-7,9-dimethyl-5,16-dioxo-1,2,3,5,6,7,8,9,10,11,13a,14,14a,15,16,16a-hexadecahydrocyclopropa[e]pyrrolo[1,2-a][1,4]diazacyclopentadecine-14a-carboxamide] | < 5.46 nM | < 5.46 nM
12 | COc1ccc2c(O[C@@H]3C[C@H]4C(=O)N[C@]5(C(=O)NS(=O)(=O)C6(C)CC6)C[C@H]5/C=C\CC[C@H](C)C[C@@H](C)[C@H](NC(=O)OC(C)(C)C)C(=O)N4C3)nc(-c3ccc(OC(C)C)nc3)cc2c1 [Compound 5222, tert-butyl ((2R,6S,7R,9S,13aS,14aR,16aS,Z)-2-((3-(6-isopropoxypyridin-3-yl)-6-methoxyisoquinolin-1-yl)oxy)-7,9-dimethyl-14a-(((1-methylcyclopropyl)sulfonyl)carbamoyl)-5,16-dioxo-1,2,3,5,6,7,8,9,10,11,13a,14,14a,15,16,16a-hexadecahydrocyclopropa[e]pyrrolo[1,2-a][1,4]diazacyclopentadecin-6-yl)carbamate] | 4.82 to 103 nM | < 5.46 nM
